Series [1] addresses T1, mitochondrial pyruvate carrier (MPC) (Mus musculus, UniProt P63030+Q9D023).
T1 construct: host or cells: 4T1 murine breast cancer cells, rPFO-permeabilized
T1 sequence (P63030 1-109): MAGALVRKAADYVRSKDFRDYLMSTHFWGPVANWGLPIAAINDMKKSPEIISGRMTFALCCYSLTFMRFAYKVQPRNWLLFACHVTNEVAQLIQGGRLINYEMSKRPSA
T1 sequence (Q9D023 1-127): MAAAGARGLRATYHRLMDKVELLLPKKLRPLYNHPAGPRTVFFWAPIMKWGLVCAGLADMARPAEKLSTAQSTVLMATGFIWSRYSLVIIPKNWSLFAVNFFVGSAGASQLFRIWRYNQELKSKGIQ
Nature of the series: Seahorse XFe96 Pyr-driven respiration in rPFO-permeabilized 4T1 cells. The class given is cell-based, murine. The following applies: read-out: IC50, inhibition of Pyr-driven respiration. As to the method:
After validating the ability of rPFO to permeabilize 4T1 cells without damaging mitochondria, we sought to investigate the ability of candidate compounds to inhibit Pyr-driven respiration in these cells (Fig. 1, D–G). In this regard, 4T1 cells were seeded in Seahorse XFe96 well plates and were incubated to reach confluence (∼18–24 h) in growth media (+serum). Growth media were then aspirated, and cells were washed with MAS buffer to remove serum and endogenous metabolic substrates. Serum- and substrate-starved cells were then incubated for equilibration in MAS buffer in a non-CO2 incubator. Inhibitors, rPFO, and substrate milieus were prepared in MAS buffer to be injected in succession to allow for real-time observation of the effects of compound-treated cultures on oxygen consumption rates (OCRs) when compared with vehicle (dimethyl sulfoxide [DMSO])-treated cells. Equilibrated intact cells were allowed to establish basal respiratory rates, followed by the injection of candidate compounds C1 to C4 at varying dose-titrated concentrations, respectively, and acute decreases in OCR were observed (Fig. 1, D–G). Compound exposure was performed in intact cells to avoid influence of rPFO on acute cellular targets. Cells were then exposed to rPFO, followed by the carbonyl cyanide-p-trifluoromethoxyphenylhydrazone (FCCP)–stimulated Pyr substrate milieu, which consisted of Pyr, malate (Mal), and dichloroacetate (DCA) to fuel uninhibited Pyr respiratory flux and maximal respiration. Mal and DCA were included to allow for continuous TCA cycle function without acetyl CoA feedback–mediated inhibition (Mal) or Pyr dehydrogenase–regulated inhibition (DCA) of Pyr uptake. Here, we observed a dose-dependent inhibition of Pyr-driven respiration in cells treated with the candidate compounds, allowing for logarithmic dose–response curves to be generated, and 50% inhibitory concentrations (IC50) to be calculated (Fig. 1, D–G). Finally, complex I and […] were injected to halt respiration and end the assay. […] In this regard, the fluoro-aminocarboxycoumarin derivative C4 has been designated as the lead candidate for further investigation.
Permeabilized cell assays were performed using rPFO as described previously. 4T1 cells were seeded (20,000 cells/well) onto Seahorse XFe96 well plates and incubated overnight in growth media at 37 °C and 5% CO2 for adherence. On the day of the assay, growth media were aspirated and replaced with MAS buffer (70 mM sucrose, 220 mM mannitol, 10 mM potassium phosphate monobasic, 5 mM magnesium chloride, 2 mM Hepes, and 1 mM EGTA) after 3X rinse of growth media to remove serum and endogenous metabolic substrates, and incubated at 37 °C in a non-CO2 incubator. Respective inhibitor and substrate milieu's were prepared in MAS buffer for port injections A–D at 8X, 9X, 10X, and 11X the target cell concentrations to account for intrinsic dilution factor of in situ injections of each port. […] Final substrate concentrations for specific tests were as follows: (5 mM Pyr , 0.5 mM Mal, 2 mM DCA; 10 mM glutamate, 0.5 mM Mal, 2 mM DCA; 10 mM succinate, 2 μM rotenone; 20 mM methyl Pyr, 5 mM Pyr, 0.5 mM Mal, and 2 mM DCA). ATP rate assays and mitochondrial stress tests were performed according to the manufacturer's (Agilent) instructions.

A further series concerns 4T1. Nature of the series: Sulforhodamine B cell proliferation inhibition assay, 4T1. The class given is cell-based, murine. The following applies: Mus musculus, 72 h, average ± SEM. The procedure: Cells were seeded (3 × 10^4 cells/well) in 48-well plates and incubated overnight (37 °C, 5% CO2). Test compounds were then exposed to cells in duplicate in serial dilution fashion and were incubated for an additional 72 h (37 °C, 5% CO2). Media were then aspirated, and cells were washed three times with cold PBS and left overnight to dry fix. […] Dyed cells were then lysed with Tris (10 mM, pH 10), and absorbance readings were recorded at 540 nm of each well. Treatment absorbances are taken as percentages of the average untreated absorbances and plotted against log(concentration) in GraphPad Prism 10 to generate effective concentration values where 50% of the cells are not proliferating (EC50).

Series [2] can be described thus: General tolerability dose escalation, intraperitoneal, CD-1 mice. The class given is in vivo. The procedure:
After obtaining PK parameters of C5, we carried out a general tolerability dose escalation study via intraperitoneal injection to determine a maximum tolerated dose for future tumor efficacy studies (Fig. S3B). […] In CD-1 mice, dosing began at 5 mg/kg for 7 days. After 7 days, dosing was increased to 6 mg/kg; however, at this dose, there were acute respiratory effects and lethargy observed in the mice deeming it a toxic dose.
Dosing was increased to 6 mg/kg on day 8, but significant acute respiratory effects were observed indicating toxicity. Due to this acute effect, the study was terminated, and all mice were euthanized. The study was carried out following Institutional Animal Care and Use Committee protocol 2211-40546A.

A short description of another series: in vivo. Particulars: BALB/c, mouse; for bioavailability / Vd / clearance: plasma; for half-life: in vivo.

Description for in vivo: IV dosing allows for analysis under the assumption of total systemic absorption (Fig. S3A).
In a contract organization Medicilon, 35 male and 35 female BALB/c mice were randomized and put into two groups (n = 15) per sex for each route of administration (4 total groups). Extra mice were used for collection of blank plasma. […] Each time point utilized three mice per group, and each mouse had two blood draws. The blood samples were collected in K2EDTA tubes on ice, centrifuged at 6800g (6 min, 4 °C) to generate plasma samples. The plasma samples were stored below −70 °C until LC–MS/MS analysis. […] After data acquisition, noncompartmental analysis parameters were calculated by Pheonix WinNonlin 7.0.

The term EC50 denotes the concentration giving half of the maximal effect. A higher EC50 goes with weaker potency. As usually defined, the half-life is the time needed for the level to fall by half in the phase considered. A lower half-life goes with rapid decline. The term Vd denotes a proportionality between amount in the body and measured concentration, not a real space. A high value points to wide distribution into tissue. For orientation: clearance means the volume of plasma or blood freed of the substance per unit of time. A lower clearance goes with a low capacity for elimination. For the molecule `CN(Cc1ccc(C(F)(F)F)cc1)c1ccc2cc(C(=O)O)c(=O)oc2c1.NC(CO)(CO)CO` [C5, 1,3-dihydroxy-2-(hydroxymethyl)propan-2-aminium 7-(methyl(4-(trifluoromethyl)benzyl)amino)-2-oxo-2H-chromene-3-carboxylate], in series [1], the IC50 is 0.0144 ± 0.0005 µM. In the series on 4T1, this molecule had an EC50 of 67.9 ± 7.3 µM. The “toxic dose (acute respiratory effects and lethargy)” value in series [2] is reported as 6 mg/kg. The MTD at 7 days in series [2] (female, mouse, in vivo, ip, once daily 7 days, read-out: maximum tolerated dose) amounted to 5 mg/kg. Moreover, the bioavailability is about 100% in the series “in vivo” (both, po, 5 mg/kg); 125% in “in vivo” (female, po, 5 mg/kg); 124% in the series “in vivo” (male, po, 5 mg/kg). Further, the half-life in the series “in vivo” (female, iv, 1 mg/kg) is 3.15 h; in the series “in vivo” (female, po, 5 mg/kg), 4.41 h; in “in vivo” (male, iv, 1 mg/kg), 3.65 h; in “in vivo” (male, po, 5 mg/kg), 4.04 h. The Vd in the series “in vivo” (female, iv, 1 mg/kg) stood at 6.92 L/kg; in “in vivo” (male, iv, 1 mg/kg), 10.2 L/kg. For the same molecule, the clearance in “in vivo” (female, iv, 1 mg/kg) amounted to 26.6 mL/min/kg; in “in vivo” (male, iv, 1 mg/kg), 34.3 mL/min/kg.

For the origin of these results see paper PMC12355554, “Development of novel mitochondrial pyruvate carrier inhibitors for breast cancer treatment” (The Journal of Biological Chemistry, 2025).
